Patent US5081232A, “Complexes of TC99m radiopharmaceuticals” (priority 1987, dated 1992)
Where two headings read alike, the source gives them in different places.

How the values were obtained:
[1] = Animal biodistribution (in vivo, i.v. injection); details: rats; for Blood, % injected dose/organ: blood taken as 5.8% of body weight; for Muscle, % injected dose/organ: muscle taken as 43% of body weight
Method: (§1) 0.1 ml Tc^99m prep was injected i.v. into a lateral tail vein of 6 anaesthetised rats.
(§2) At 2 minutes and 60 minutes post injection, 3 rats were sacrificed by decapitation, bled from the neck and dissected. The following organs were removed at dissection: kidney, bladder(+urine), lung, liver, spleen, stomach, small intestine, large intestine, brain (weighed), heart (weighed), thyroid, and samples of blood (weighed) and muscle (weighed, the residual carcass and the tail (injection site). Subsequently samples were counted in an automatic twin crystal gamma counter.
(§3) Percentage biodistribution of injected material was calculated (after correction for background) for all organs using the formula: [formula]
(§4) Since only samples of muscle and blood were taken, the percentage in these tissues was calculated assuming blood and muscle to represent 5.8 and 43% of total animal weight respectively using the formula: [formula] where CF= 0.058 for blood

[2] = rat, in vivo, iv
Method: as §1, §2, §3, §4

O=[N][Tc+][Cl].[C-]#[N+]C(C)(C)C.[C-]#[N+]C(C)(C)C.[C-]#[N+]C(C)(C)C.[C-]#[N+]C(C)(C)C [[^99 Tc(NO)Cl(t-BuCN)4]^+]
Brain, % injected dose/organ ([1]; 2 min p.i.): 0.04 % injected dose/organ
Heart, % injected dose/organ ([1]; 2 min p.i.): 1.09 % injected dose/organ
Heart/Blood Counts/Gram ratio ([1]; 2 min p.i.): 6.19
Heart/Liver Counts/Gram ratio ([1]; 2 min p.i.): 2.58
Heart/Lung Counts/Gram ratio ([1]; 2 min p.i.): 3.34
Kidney + Urine, % injected dose/organ ([1]; 2 min p.i.): 6.86 % injected dose/organ
Liver, % injected dose/organ ([1]; 2 min p.i.): 5.82 % injected dose/organ
Lung, % injected dose/organ ([1]; 2 min p.i.): 0.64 % injected dose/organ
Blood, % injected dose/organ ([1]; 2 min p.i.): 0.40 % injected dose/organ
Muscle, % injected dose/organ ([1]; 2 min p.i.): 21.45 % injected dose/organ
Brain, % injected dose/organ ([1]; 60 min p.i.): 0.04 % injected dose/organ
Heart, % injected dose/organ ([1]; 60 min p.i.): 1.37 % injected dose/organ
Heart/Blood Counts/Gram ratio ([1]; 60 min p.i.): 8.98
Heart/Liver Counts/Gram ratio ([1]; 60 min p.i.): 2.97
Heart/Lung Counts/Gram ratio ([1]; 60 min p.i.): 26.02
Kidney + Urine, % injected dose/organ ([1]; 60 min p.i.): 8.15 % injected dose/organ
Liver, % injected dose/organ ([1]; 60 min p.i.): 5.89 % injected dose/organ
Lung, % injected dose/organ ([1]; 60 min p.i.): 0.12 % injected dose/organ
Muscle, % injected dose/organ ([1]; 60 min p.i.): 18.30 % injected dose/organ

CP(C)CCP(C)C.CP(C)CCP(C)C.N#[O+].[99Tc+].[Cl-].[Cl-]
Brain, % injected dose/organ ([1]; 2 min p.i.): 0.04 % injected dose/organ
Heart, % injected dose/organ ([1]; 2 min p.i.): 0.46 % injected dose/organ
Heart/Blood Counts/Gram ratio ([1]; 2 min p.i.): 0.68
Heart/Liver Counts/Gram ratio ([1]; 2 min p.i.): 0.38
Heart/Lung Counts/Gram ratio ([1]; 2 min p.i.): 0.71
Heart/Muscle Counts/Gram ratio ([1]; 2 min p.i.): 1.85
Kidney + Urine, % injected dose/organ ([1]; 2 min p.i.): 10.18 % injected dose/organ
Liver + GI, % injected dose/organ ([1]; 2 min p.i.): 26.33 % injected dose/organ
Liver, % injected dose/organ ([1]; 2 min p.i.): 15.03 % injected dose/organ
Lung, % injected dose/organ ([1]; 2 min p.i.): 1.09 % injected dose/organ
Blood, % injected dose/organ ([1]; 2 min p.i.): 9.96 % injected dose/organ
Muscle, % injected dose/organ ([1]; 2 min p.i.): 27.00 % injected dose/organ
Brain, % injected dose/organ ([1]; 60 min p.i.): 0.01 % injected dose/organ
Heart, % injected dose/organ ([1]; 60 min p.i.): 0.30 % injected dose/organ
Heart/Blood Counts/Gram ratio ([1]; 60 min p.i.): 4.48
Heart/Liver Counts/Gram ratio ([1]; 60 min p.i.): 1.13
Heart/Lung Counts/Gram ratio ([1]; 60 min p.i.): 1.53
Heart/Muscle Counts/Gram ratio ([1]; 60 min p.i.): 2.34
Kidney + Urine, % injected dose/organ ([1]; 60 min p.i.): 42.60 % injected dose/organ
Liver + GI, % injected dose/organ ([1]; 60 min p.i.): 34.70 % injected dose/organ
Liver, % injected dose/organ ([1]; 60 min p.i.): 3.14 % injected dose/organ
Lung, % injected dose/organ ([1]; 60 min p.i.): 0.33 % injected dose/organ
Blood, % injected dose/organ ([1]; 60 min p.i.): 1.02 % injected dose/organ
Muscle, % injected dose/organ ([1]; 60 min p.i.): 14.10 % injected dose/organ

O=[N][99Tc]([Cl])([Cl])[Cl].c1ccc(-c2ccccn2)nc1 [[^99 Tc(NO)Cl3 (Bipy)], bipyridyltrichloronitrosyltechnetium (11)]
Brain, % injected dose/organ ([1]; 2 min p.i.): 0.06 % injected dose/organ
Heart, % injected dose/organ ([1]; 2 min p.i.): 0.32 % injected dose/organ
Heart/Blood Counts/Gram ratio ([1]; 2 min p.i.): 0.99
Heart/Liver Counts/Gram ratio ([1]; 2 min p.i.): 1.31
Heart/Lung Counts/Gram ratio ([1]; 2 min p.i.): 1.30
Heart/Muscle Counts/Gram ratio ([1]; 2 min p.i.): 1.69
Kidney + Urine, % injected dose/organ ([1]; 2 min p.i.): 11.30 % injected dose/organ
Liver + GI, % injected dose/organ ([1]; 2 min p.i.): 0.00 % injected dose/organ
Liver, % injected dose/organ ([1]; 2 min p.i.): 3.43 % injected dose/organ
Lung, % injected dose/organ ([1]; 2 min p.i.): 0.45 % injected dose/organ
Blood, % injected dose/organ ([1]; 2 min p.i.): 7.17 % injected dose/organ
Muscle, % injected dose/organ ([1]; 2 min p.i.): 24.17 % injected dose/organ
Brain, % injected dose/organ ([1]; 60 min p.i.): 0.04 % injected dose/organ
Heart, % injected dose/organ ([1]; 60 min p.i.): 0.30 % injected dose/organ
Heart/Blood Counts/Gram ratio ([1]; 60 min p.i.): 2.12
Heart/Liver Counts/Gram ratio ([1]; 60 min p.i.): 1.09
Heart/Lung Counts/Gram ratio ([1]; 60 min p.i.): 4.13
Heart/Muscle Counts/Gram ratio ([1]; 60 min p.i.): 2.02
Kidney + Urine, % injected dose/organ ([1]; 60 min p.i.): 22.96 % injected dose/organ
Liver + GI, % injected dose/organ ([1]; 60 min p.i.): 0.00 % injected dose/organ
Liver, % injected dose/organ ([1]; 60 min p.i.): 3.35 % injected dose/organ
Lung, % injected dose/organ ([1]; 60 min p.i.): 0.10 % injected dose/organ
Blood, % injected dose/organ ([1]; 60 min p.i.): 2.02 % injected dose/organ
Muscle, % injected dose/organ ([1]; 60 min p.i.): 18.95 % injected dose/organ

O=[N][99Tc]1([Cl])([Cl])([Cl])[N]2C=CC=c3ccc4c(c32)[N]1C=CC=4 [[^99 Tc(NO)(1,10 phen)Cl3]°]
Brain, % injected dose/organ ([1]; 2 min p.i.): 0.08 % injected dose/organ
Heart, % injected dose/organ ([1]; 2 min p.i.): 0.40 % injected dose/organ
Heart/Blood Counts/Gram ratio ([1]; 2 min p.i.): 1.59
Heart/Liver Counts/Gram ratio ([1]; 2 min p.i.): 35.14
Heart/Lung Counts/Gram ratio ([1]; 2 min p.i.): 1.55
Heart/Muscle Counts/Gram ratio ([1]; 2 min p.i.): 1.99
Kidney + Urine, % injected dose/organ ([1]; 2 min p.i.): 1.97 % injected dose/organ
Liver, % injected dose/organ ([1]; 2 min p.i.): 0.16 % injected dose/organ
Lung, % injected dose/organ ([1]; 2 min p.i.): 0.67 % injected dose/organ
Blood, % injected dose/organ ([1]; 2 min p.i.): 3.98 % injected dose/organ
Muscle, % injected dose/organ ([1]; 2 min p.i.): 22.83 % injected dose/organ
Brain, % injected dose/organ ([1]; 60 min p.i.): 0.04 % injected dose/organ
Heart, % injected dose/organ ([1]; 60 min p.i.): 0.29 % injected dose/organ
Heart/Blood Counts/Gram ratio ([1]; 60 min p.i.): 1.36
Heart/Liver Counts/Gram ratio ([1]; 60 min p.i.): 10.63
Heart/Lung Counts/Gram ratio ([1]; 60 min p.i.): 2.57
Heart/Muscle Counts/Gram ratio ([1]; 60 min p.i.): 4.68
Kidney + Urine, % injected dose/organ ([1]; 60 min p.i.): 16.05 % injected dose/organ
Liver, % injected dose/organ ([1]; 60 min p.i.): 0.46 % injected dose/organ
Lung, % injected dose/organ ([1]; 60 min p.i.): 0.23 % injected dose/organ
Blood, % injected dose/organ ([1]; 60 min p.i.): 3.49 % injected dose/organ
Muscle, % injected dose/organ ([1]; 60 min p.i.): 17.02 % injected dose/organ

O=[N][99Tc-]([Cl])([Cl])([Cl])[Cl] [[^99m TcNOCl4]^-]
Brain, % injected dose/organ ([1]; 2 min p.i.): 0.09 % injected dose/organ
Heart, % injected dose/organ ([1]; 2 min p.i.): 0.55 % injected dose/organ
Heart/Blood Counts/Gram ratio ([1]; 2 min p.i.): 0.41
Heart/Liver Counts/Gram ratio ([1]; 2 min p.i.): 1.37
Heart/Muscle Counts/Gram ratio ([1]; 2 min p.i.): 2.14
Kidney + Urine, % injected dose/organ ([1]; 2 min p.i.): 6.26 % injected dose/organ
Liver + GI, % injected dose/organ ([1]; 2 min p.i.): 13.49 % injected dose/organ
Liver, % injected dose/organ ([1]; 2 min p.i.): 5.31 % injected dose/organ
Lung, % injected dose/organ ([1]; 2 min p.i.): 2.09 % injected dose/organ
Blood, % injected dose/organ ([1]; 2 min p.i.): 20.32 % injected dose/organ
Muscle, % injected dose/organ ([1]; 2 min p.i.): 30.35 % injected dose/organ
Brain, % injected dose/organ ([1]; 60 min p.i.): 0.05 % injected dose/organ
Heart, % injected dose/organ ([1]; 60 min p.i.): 0.42 % injected dose/organ
Heart/Blood Counts/Gram ratio ([1]; 60 min p.i.): 0.43
Heart/Liver Counts/Gram ratio ([1]; 60 min p.i.): 0.98
Heart/Muscle Counts/Gram ratio ([1]; 60 min p.i.): 1.66
Kidney + Urine, % injected dose/organ ([1]; 60 min p.i.): 14.61 % injected dose/organ
Liver + GI, % injected dose/organ ([1]; 60 min p.i.): 11.89 % injected dose/organ
Liver, % injected dose/organ ([1]; 60 min p.i.): 4.59 % injected dose/organ
Lung, % injected dose/organ ([1]; 60 min p.i.): 1.71 % injected dose/organ
Blood, % injected dose/organ ([1]; 60 min p.i.): 14.94 % injected dose/organ
Muscle, % injected dose/organ ([1]; 60 min p.i.): 30.41 % injected dose/organ

CCP(CC)CCP(CC)CC.CCP(CC)CCP(CC)CC.O=[N][99Tc+][Cl].[Cl-] [[^99m Tc(NO(DEPE)2 Cl]^+]
Blood, % injected dose/organ ([2]; 2 min): 6.00 % injected dose/organ
Heart, % injected dose/organ ([2]; 2 min): 1.06 % injected dose/organ
Heart/Blood Counts/Gram ratio ([2]; 2 min): 3.03
Heart/Liver Counts/Gram ratio ([2]; 2 min): 0.73
Heart/Lung Counts/Gram ratio ([2]; 2 min): 0.4
Heart/Muscle Counts/Gram ratio ([2]; 2 min): 5.94
Kidney + Urine, % injected dose/organ ([2]; 2 min): 13.8 % injected dose/organ
Liver + GI, % injected dose/organ ([2]; 2 min): 37.3 % injected dose/organ
Liver, % injected dose/organ ([2]; 2 min): 23.63 % injected dose/organ
Lung, % injected dose/organ ([2]; 2 min): 2.98 % injected dose/organ
Muscle, % injected dose/organ ([2]; 2 min): 22.9 % injected dose/organ
Blood, % injected dose/organ ([2]; 60 min): 0.41 % injected dose/organ
Heart, % injected dose/organ ([2]; 60 min): 0.92 % injected dose/organ
Heart/Blood Counts/Gram ratio ([2]; 60 min): 38.1
Heart/Liver Counts/Gram ratio ([2]; 60 min): 1.75
Heart/Lung Counts/Gram ratio ([2]; 60 min): 0.6
Heart/Muscle Counts/Gram ratio ([2]; 60 min): 6.18
Kidney + Urine, % injected dose/organ ([2]; 60 min): 19.3 % injected dose/organ
Liver + GI, % injected dose/organ ([2]; 60 min): 47.0 % injected dose/organ
Liver, % injected dose/organ ([2]; 60 min): 7.54 % injected dose/organ
Lung, % injected dose/organ ([2]; 60 min): 1.57 % injected dose/organ
Muscle, % injected dose/organ ([2]; 60 min): 19.1 % injected dose/organ
